Experimental data from patent publication US10000500B2 (PROMEGA CORPORATION, priority 2016, dated 2018).

Biological target: NANOLUC® Luciferase (Oplophorus gracilirostris, UniProt Q9GV45, A31E/A60N/A81I/F95D/I117V/K70R/L54V/L99Q/M102K/N193R/P142E/Q151K/Q38R/Q45L/V71I/Y165I)
Assay: Luminescence assay with purified NANOLUC luciferase (Example 7)
Type: biochemical
Details: bioluminescence with NANOLUC luciferase
Method: Each compound to be screened was dissolved in DMSO (5 mM) and then further diluted to 100 uM in NANO-GLO® Luciferase Assay Buffer. Each diluted substrate was then combined in equal volumes with purified NANOLUC® Luciferase diluted into CO2 independent media+10% FBS. Initial light output for each substrate was measured in a GLOMAXI-Multi+luminometer three minutes after substrate addition and then at five minute intervals as a means to determine signal half-life.
The synthesized coelenterazine analogues (compounds of formula (I) and (II)) were evaluated for their suitability as luciferase substrates. NANOLUC® luciferase was employed for the screening because it is a small (19 kDa), stable, and particularly bright enzyme.

NANOLUC® Luciferase, sequence (Q9GV45 28-196 with tags or gaps with the stated changes limits assumed): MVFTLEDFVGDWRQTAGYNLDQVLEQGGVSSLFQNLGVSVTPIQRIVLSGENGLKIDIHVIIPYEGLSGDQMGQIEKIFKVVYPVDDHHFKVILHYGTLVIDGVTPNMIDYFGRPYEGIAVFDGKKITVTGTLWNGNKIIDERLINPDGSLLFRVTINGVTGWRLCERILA

Row | Compound | λmax, nm [nm]
1 | Nc1ccc(-c2cn3c(=O)c(Cc4ccco4)nc-3c(-c3ccnc(Cl)c3)[nH]2)cc1 | 571
2 | O=c1c(Cc2ccco2)nc2c(-c3ccco3)[nH]c(-c3ccco3)cn1-2 [AS-175, 6,8-di(furan-2-yl)-2-(furan-2-ylmethyl)imidazo[1,2-a]pyrazin-3(7H)-one] | 514
3 | O=c1c(Cc2ccco2)nc2c(-c3cccs3)[nH]c(-c3cccs3)cn1-2 [AS-176, 2-(furan-2-ylmethyl)-6,8-di(thiophen-2-yl)imidazo[1,2-a]pyrazin-3(7H)-one] | 496
4 | Cn1cc(-c2[nH]c(-c3ccn(C)n3)cn3c(=O)c(Cc4ccco4)nc2-3)cn1 [AS-190, 2-(furan-2-ylmethyl)-6-(1-methyl-1H-pyrazol-3-yl)-8-(1-methyl-1H-pyrazol-4-yl)imidazo[1,2-a]pyrazin-3(7H)-one] | 496
5 | O=c1c(Cc2ccco2)nc2c(-c3cccc4ccccc34)[nH]c(-c3ccccc3)cn1-2 [AS-215, 2-(furan-2-ylmethyl)-8-(naphthalen-1-yl)-6-phenylimidazo[1,2-a]pyrazin-3(7H)-one] | 517
6 | CN(C)c1ccc(-c2[nH]c(-c3ccccc3)cn3c(=O)c(Cc4ccco4)nc2-3)cc1 [AS-224, 8-(4-(dimethylamino)phenyl)-2-(furan-2-ylmethyl)-6-phenylimidazo[1,2-a]pyrazin-3(7H)-one] | 502
7 | O=c1c(Cc2ccco2)nc2c(-c3ccsc3)[nH]c(-c3ccccc3)cn1-2 [AS-229, 2-(furan-2-ylmethyl)-6-phenyl-8-(thiophen-3-yl)imidazo[1,2-a]pyrazin-3(7H)-one] | 496
8 | O=c1c(Cc2ccco2)nc2c(-c3cccs3)[nH]c(-c3ccccc3)cn1-2 [AS-236, 2-(furan-2-ylmethyl)-6-phenyl-8-(thiophen-2-yl)imidazo[1,2-a]pyrazin-3(7H)-one] | 514
9 | N#Cc1ccc(-c2[nH]c(-c3ccccc3)cn3c(=O)c(Cc4ccco4)nc2-3)cc1 [AS-237, 4-(2-(furan-2-ylmethyl)-3-oxo-6-phenyl-3,7-dihydroimidazo[1,2-a]pyrazin-8-yl)benzonitrile] | 559
10 | O=c1c(Cc2ccco2)nc2c(C#Cc3ccccc3)[nH]c(-c3ccccc3)cn1-2 [AS-242, 2-(furan-2-ylmethyl)-6-phenyl-8-(phenylethynyl)imidazo[1,2-a]pyrazin-3(7H)-one] | 517
11 | O=c1c(Cc2ccco2)nc2c(-c3ccccc3)[nH]c(-c3ccccc3)c(-c3ccccc3)n1-2 [AS-248, 2-(furan-2-ylmethyl)-5,6,8-triphenylimidazo[1,2-a]pyrazin-3(7H)-one] | 520
12 | O=c1c(Cc2ccco2)nc2c(-c3ccc4scnc4c3)[nH]c(-c3ccccc3)cn1-2 [AS-250, 8-(benzo[d]thiazol-5-yl)-2-(furan-2-ylmethyl)-6-phenylimidazo[1,2-a]pyrazin-3(7H)-one] | 511
13 | Cn1cc(-c2[nH]c(-c3ccccc3)cn3c(=O)c(Cc4ccco4)nc2-3)ccc1=O [AS-256, 2-(furan-2-ylmethyl)-8-(1-methyl-6-oxo-1,6-dihydropyridin-3-yl)-6-phenylimidazo[1,2-a]pyrazin-3(7H)-one] | 496
14 | O=c1c(Cc2ccco2)nc2c(-c3ccc(F)cc3)[nH]c(-c3ccccc3)cn1-2 [AS-269, 8-(4-fluorophenyl)-2-(furan-2-ylmethyl)-6-phenylimidazo[1,2-a]pyrazin-3(7H)-one] | 490
15 | O=c1c(Cc2ccco2)nc2c(-c3cc(F)c(F)c(F)c3)[nH]c(-c3ccccc3)cn1-2 [AS-270, 2-(furan-2-ylmethyl)-6-pheny1-8-(3,4,5-trifluorophenyl)imidazo[1,2-a]pyrazin-3(7H)-one] | 502
16 | O=c1c(Cc2ccco2)nc2c(-c3ccnc(F)c3)[nH]c(-c3ccccc3)cn1-2 [AS-271, 8-(2-fluoropyridin-4-yl)-2-(furan-2-ylmethyl)-6-phenylimidazo[1,2-a]pyrazin-3(7H)-one] | 532
17 | O=c1c(Cc2ccco2)nc2c(-c3cccnc3F)[nH]c(-c3ccccc3)cn1-2 [AS-272, 8-(2-fluoropyridin-3-yl)-2-(furan-2-ylmethyl)-6-phenylimidazo[1,2-a]pyrazin-3(7H)-one] | 508
18 | O=c1c(Cc2ccco2)nc2c(-c3ccc(F)nc3)[nH]c(-c3ccccc3)cn1-2 [AS-273, 8-(6-fluoropyridin-3-yl)-2-(furan-2-ylmethyl)-6-phenylimidazo[1,2-a]pyrazin-3(7H)-one] | 496
19 | N#Cc1cccc(-c2[nH]c(-c3ccccc3)cn3c(=O)c(Cc4ccco4)nc2-3)c1 [AS-274, 3-(2-(furan-2-ylmethyl)-3-oxo-6-phenyl-3,7-dihydroimidazo[1,2-a]pyrazin-8-yl)benzonitrile] | 514
20 | O=c1c(Cc2ccco2)nc2c(-c3ccnc(Cl)c3)[nH]c(-c3ccccc3)cn1-2 [AS-275, 8-(2-chloropyridin-4-yl)-2-(furan-2-ylmethyl)-6-phenylimidazo[1,2-a]pyrazin-3(7H)-one] | 535
21 | O=c1c(Cc2ccco2)nc2c(-c3ccncc3)[nH]c(-c3ccccc3)cn1-2 [AS-276, 2-(furan-2-ylmethyl)-6-phenyl-8-(pyridin-4-yl)imidazo[1,2-a]pyrazin-3(7H)-one] | 523
22 | O=c1c(Cc2ccco2)nc2c(-c3cccnc3)[nH]c(-c3ccccc3)cn1-2 [AS-277, 2-(furan-2-ylmethyl)-6-phenyl-8-(pyridin-3-yl)imidazo[1,2-a]pyrazin-3(7H)-one] | 517
23 | O=c1c(Cc2ccco2)nc2c(-c3cccnc3Cl)[nH]c(-c3ccccc3)cn1-2 [AS-278, 8-(2-chloropyridin-3-yl)-2-(furan-2-ylmethyl)-6-phenylimidazo[1,2-a]pyrazin-3(7H)-one] | 499
24 | O=c1c(Cc2ccco2)nc2c(-c3ccc(Cl)s3)[nH]c(-c3ccccc3)cn1-2 [AS-280, 8-(5-chlorothiophen-2-yl)-2-(furan-2-ylmethyl)-6-phenylimidazo[1,2-a]pyrazin-3(7H)-one] | 523
25 | O=c1c(Cc2ccco2)nc2c(-c3sccc3Cl)[nH]c(-c3ccccc3)cn1-2 [AS-282, 8-(3-chlorothiophen-2-yl)-2-(furan-2-ylmethyl)-6-phenylimidazo[1,2-a]pyrazin-3(7H)-one] | 505
26 | N#Cc1c(-c2ccccc2)[nH]c(-c2ccnc(F)c2)c2nc(Cc3ccco3)c(=O)n1-2 [AS-301, 8-(2-fluoropyridin-4-yl)-2-(furan-2-ylmethyl)-3-oxo-6-phenyl-3,7-dihydroimidazo[1,2-a]pyrazine-5-carbonitrile] | 529
27 | O=c1c(Cc2ccco2)nc2c(-c3ccnc(F)c3)[nH]c(-c3cccs3)cn1-2 [AS-306, 8-(2-fluoropyridin-4-yl)-2-(furan-2-ylmethyl)-6-(thiophen-2-yl)imidazo[1,2-a]pyrazin-3(7H)-one] | 544
